Data as given in patent publication US8227508B2, “Dietary and pharmaceutical compositions containing carnosol and/or rosmanol and their uses” (DSM IP Assets B.V., priority 2006, dated 2012).

Legend:
[1] = molecular target: T1, human dopamine transporter (hDAT) (Homo sapiens, UniProt Q01959); assay: cell-based; settings: transfected CHO-K1 cells, 50 nM [3H]-dopamine; read-out: IC50, inhibition of dopamine reuptake
T1 construct: expressed in transfected cells; host or cells: CHO-K1
Method: Specific signal was determined in the presence of 10 μM nomifensine (dopamine reuptake inhibitor). Cells were then solubilised with 1% SDS lysis buffer.

[2] = molecular target: T2, human noradrenaline transporter (hNAT) (Homo sapiens, UniProt P23975); assay: Noradrenaline uptake inhibition in MDCK cells expressing hNAT; type: cell-based
T2 construct: expressed in transfected cells; host or cells: MDCK
T2 sequence (P23975 whole entry): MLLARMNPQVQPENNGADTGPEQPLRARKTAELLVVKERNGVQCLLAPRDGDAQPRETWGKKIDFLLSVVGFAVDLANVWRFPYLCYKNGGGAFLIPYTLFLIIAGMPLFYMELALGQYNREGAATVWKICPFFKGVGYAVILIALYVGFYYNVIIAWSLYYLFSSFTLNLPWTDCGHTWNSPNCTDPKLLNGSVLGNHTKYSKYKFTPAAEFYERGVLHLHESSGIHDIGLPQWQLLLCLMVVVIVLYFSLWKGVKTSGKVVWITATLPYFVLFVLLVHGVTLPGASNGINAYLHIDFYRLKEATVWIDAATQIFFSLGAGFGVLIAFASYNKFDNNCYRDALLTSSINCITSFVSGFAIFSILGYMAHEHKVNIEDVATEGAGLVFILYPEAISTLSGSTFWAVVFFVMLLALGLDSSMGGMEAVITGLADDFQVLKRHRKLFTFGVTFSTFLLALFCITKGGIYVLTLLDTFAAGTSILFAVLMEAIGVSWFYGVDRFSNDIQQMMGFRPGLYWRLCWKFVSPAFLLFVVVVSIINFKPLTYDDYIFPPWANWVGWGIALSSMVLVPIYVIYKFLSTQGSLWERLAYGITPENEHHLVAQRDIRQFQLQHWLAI
Method: Madin Darby canine kidney (MDCK) cells, stably expressing the human noradrenaline transporter (hNAT), were plated one day before the assay. […] Cells in each well were then rinsed twice, solubilised with 1% SDS lysis buffer and the lysate was analysed to determine [^3H]-noradrenaline uptake. […] Reduction of [^3H]-noradrenaline uptake by 50 percent or more (≧50%) relative to vehicle controls indicated significant inhibitory activity.

[3] = molecular target: T3, human calcitonin gene-related peptide (hCGRP) receptor (Homo sapiens, UniProt O60894+Q16602); assay: CGRP receptor radioligand binding assay; settings: 0.03 nM [125I]h-CGRPα, CHO cell membranes, read-out: percentage inhibition of control radioligand specific binding to hCGRP receptor
T3 construct: expressed in transfected cells; host or cells: CHO (membrane homogenates)
T3 sequence (Q16602 23-461): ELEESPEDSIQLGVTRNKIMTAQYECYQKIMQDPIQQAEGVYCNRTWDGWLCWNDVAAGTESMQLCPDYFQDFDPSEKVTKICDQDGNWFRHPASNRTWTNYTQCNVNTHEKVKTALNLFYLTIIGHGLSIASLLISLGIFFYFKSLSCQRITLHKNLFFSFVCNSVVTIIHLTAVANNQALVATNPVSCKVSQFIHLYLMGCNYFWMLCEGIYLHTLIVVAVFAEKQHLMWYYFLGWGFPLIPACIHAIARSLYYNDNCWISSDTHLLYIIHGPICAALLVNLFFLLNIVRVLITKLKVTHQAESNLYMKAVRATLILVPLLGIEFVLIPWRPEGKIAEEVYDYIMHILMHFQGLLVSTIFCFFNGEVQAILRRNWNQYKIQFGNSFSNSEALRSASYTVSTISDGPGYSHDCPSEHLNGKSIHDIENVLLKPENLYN
T3 sequence (O60894 27-148): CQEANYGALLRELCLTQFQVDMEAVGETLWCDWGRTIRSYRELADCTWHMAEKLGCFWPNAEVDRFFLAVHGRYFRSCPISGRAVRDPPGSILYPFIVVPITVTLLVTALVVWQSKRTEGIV
Method: The effect of carnosol on the agonist site of the human calcitonin gene-related peptide (hCGRP) receptor in transfected CHO cells was investigated using a radioligand binding assay adapted from that described by Aiyar et al. (1996, J. Biol. Chem., 271: 11325-11329).
Briefly, cell membrane homogenates (10 μg protein) were incubated for 90 min at 22° C. with 0.03 nM [^125I]h-CGRPα in the absence or presence of carnosol (10 μM) in a buffer containing 50 mM HEPES-NaOH (pH 7.4), 10 mM MgCl2, 4 mM KCl, 10 mM NaCl, 1 mM EDTA, 1 μM phosphoramidon, 0.3% BSA and 0.04% bacitracine. Non-specific binding was determined in the presence of 1 μM h-CGRPα. Following incubation, the samples were filtered rapidly under vacuum through glass fibre filters (GF/B, Packard) pre-soaked with 0.3% polyethyleneimine (PEI) and rinsed several times with ice-cold 50 mM Tris-HCl using a 96-sample cell harvester (Unifilter, Packard). The filters were dried then counted for radioactivity in a scintillation counter (Topcount, Packard) using a scintillation cocktail (Microscint 0, Packard). The results are expressed as percentage inhibition of the control radioligand specific binding. The standard reference compound used was h-CGRPα, the natural agonist of the hCGRP receptor.

[4] = molecular target: human recombinant acetylcholinesterase (Homo sapiens, UniProt P22303); assay: Acetylcholinesterase inhibition (Ellman method); type: biochemical; settings: substrate AMTCh 50 μM, read-out: percentage inhibition of acetylcholinesterase activity
Chain of human recombinant acetylcholinesterase (P22303 32-614): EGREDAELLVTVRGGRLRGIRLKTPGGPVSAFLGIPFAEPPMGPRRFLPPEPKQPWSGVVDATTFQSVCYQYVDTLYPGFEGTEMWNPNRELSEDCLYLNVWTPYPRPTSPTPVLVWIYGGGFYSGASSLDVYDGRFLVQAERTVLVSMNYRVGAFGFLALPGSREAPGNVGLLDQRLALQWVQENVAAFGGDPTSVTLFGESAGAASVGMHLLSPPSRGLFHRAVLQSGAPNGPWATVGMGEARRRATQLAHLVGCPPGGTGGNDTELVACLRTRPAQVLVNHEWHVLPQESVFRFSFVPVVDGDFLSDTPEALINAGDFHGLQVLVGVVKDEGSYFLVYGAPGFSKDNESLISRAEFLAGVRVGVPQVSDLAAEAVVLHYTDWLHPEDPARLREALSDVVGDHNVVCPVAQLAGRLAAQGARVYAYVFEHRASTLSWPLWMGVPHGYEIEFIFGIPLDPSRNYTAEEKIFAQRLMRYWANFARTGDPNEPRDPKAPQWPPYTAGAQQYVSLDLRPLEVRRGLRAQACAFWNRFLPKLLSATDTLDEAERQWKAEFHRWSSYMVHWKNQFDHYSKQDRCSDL
Method: The effect of carnosol on human recombinant acetylcholinesterase activity was quantified by measuring the formation of 5-thio-2-nitrobenzoic acid from acetyl-6-methylthiocholine (AMTCh), as adapted from Ellman et al. (1961, Biochem. Pharmacol., 7: 88-90). Briefly, carnosol (10 μM), reference compound or water (control) were added to a buffer containing 200 mM NaH2PO4/Na2HPO4 (pH 8.0), 5 mg/ml (NH4)2SO4, 0.4 mM DTNB and 5 mU enzyme. The enzymatic reaction was then initiated by the addition of the substrate AMTCh at 50 μM. The absorbance was measured immediately (t=0) at λ=405 nm using a microplate reader (MRX, Dynatech or Ultra, Tecan). This measurement was used to detect any compound interference with the spectrophotometric detection at this wavelength. After 30 min incubation at 37° C. (t=30), a second measurement of the absorbance was made at λ=405 nm. The enzyme activity was determined by subtracting the signal measured at t=0 from that measured at t=30. The results are expressed as percentage inhibition of the control enzyme activity. The standard inhibitory reference compound used was neostigmine, tested in each experiment at several concentrations to obtain an inhibition curve from which its IC50 value was calculated.

[5] = system: mouse; assay: Porsolt's Forced Swim Test (FST); type: in vivo
Method: The Forced Swim Test (FST) was first reported in 1977 for screening of antidepressant-like compounds in rats (Porsolt et al 1977 Nature, 266:730-732) and, later, modified for testing mice (Porsolt et al 1977 Arch. Int. Pharmacodynamie, 229:327-336).
In two separate experiments, mice were tested following either i.p. or p.o. administration of carnosol. Mice were individually placed in a cylinder containing water (22° C.) from which they could not escape. The mice were placed in the water for 6 min and the duration of immobility during the last 4 min was measured. Ten to fifteen mice were studied per group. Carnosol was evaluated at 3, 10, 30 mg/kg body weight (i.p. 30 min before the test) or 200, 400, 600 mg/kg body weight (p.o., 24, 5 and 1 h before the test), and compared with vehicle control groups. Imipramine (32 mg/kg i.p., or p.o., respectively), administered under the same experimental conditions, was used as reference substance. Immobility and swimming time were assessed.

[6] = system: mouse; assay: Four Plates Test; type: in vivo; settings: −5 h and −1 h
Text: The method, which detects anxiolytic activity, follows that described by Aron et al (1971, Neuropharmacology, 10:459-469). Anxiolytics (benzodiazepines) increase the number of punished crossings. Animals were placed individually in a white plastic enclosure containing a floor consisting of 4 metal plates connected to an electric shock generator (Apelex: type 011346). Each mouse was left to explore freely for 15 seconds. Then, every time it crossed from one plate to another, it received a weak electric shock (2.5 mA, 1.5 s). The number of punished crossings was counted during a 1 minute test. 15 mice were studied per group. The test was performed blind.
Carnosol was evaluated at 3 doses (200, 400, 600 mg/kg), administered p.o. 24 h, 5 h and 1 h before the test, and compared with a vehicle control (corn oil) group.
Clobazam (32 mg/kg p.o.), administered 1 h before the test, was used as reference substance. Mice in this group received additional administrations of vehicle at 24 h and 5 h before the test in order to maintain experimental blinding.

T1 sequence (Q01959 whole entry): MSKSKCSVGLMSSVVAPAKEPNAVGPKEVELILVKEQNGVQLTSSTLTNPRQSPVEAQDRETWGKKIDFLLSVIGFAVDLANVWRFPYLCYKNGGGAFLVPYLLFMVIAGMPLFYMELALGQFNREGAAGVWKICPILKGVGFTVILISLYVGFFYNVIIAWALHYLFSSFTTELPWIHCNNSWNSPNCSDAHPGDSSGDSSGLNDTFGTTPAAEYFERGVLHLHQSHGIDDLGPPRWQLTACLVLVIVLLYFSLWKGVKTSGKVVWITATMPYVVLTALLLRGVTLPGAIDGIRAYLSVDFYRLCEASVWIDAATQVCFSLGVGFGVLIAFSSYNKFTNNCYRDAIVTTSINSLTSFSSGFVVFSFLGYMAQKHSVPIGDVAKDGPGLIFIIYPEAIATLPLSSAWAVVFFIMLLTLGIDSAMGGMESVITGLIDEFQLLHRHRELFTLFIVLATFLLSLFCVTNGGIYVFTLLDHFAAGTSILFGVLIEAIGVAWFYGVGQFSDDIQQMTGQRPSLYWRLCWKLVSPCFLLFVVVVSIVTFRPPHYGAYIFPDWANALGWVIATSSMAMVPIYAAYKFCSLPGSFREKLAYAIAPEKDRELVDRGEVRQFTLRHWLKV

CC(C)c1cc2c(c(O)c1O)[C@@]13CCCC(C)(C)[C@@H]1C[C@@H]2OC3=O [Carnosol, carnosol]
IC50 [1]: 10.3 µM | IC50 [2]: 30.6 µM | inhibition at 10 µM [3]: 54% | inhibition at 10 µM [4]: 53% | Duration of immobility (% change from control) ([5]; 3 mg/kg i.p., −30 min): −26% | Duration of immobility (% change from control) ([5]; 10 mg/kg i.p., −30 min): −21% | Duration of immobility (% change from control) ([5]; 30 mg/kg i.p., −30 min): −18% | Duration of immobility (% change from control) ([5]; 200 mg/kg p.o., −24, −5, −1 h): −9% | Duration of immobility (% change from control) ([5]; 400 mg/kg p.o., −24, −5, −1 h): −53% | Duration of immobility (% change from control) ([5]; 600 mg/kg p.o., −24, −5, −1 h): −3% | Number of punished crossings, mean ([6]; 200 mg/kg p.o. −24 h): 3.5 | Number of punished crossings, mean ([6]; 400 mg/kg p.o. −24 h): 3.7 | Number of punished crossings, mean ([6]; 600 mg/kg p.o. −24 h): 3.1
